For data set [1] the following is noted: sarcoidosis, inhaled aerosolized VIP; cited from earlier work.
Data set [2] is described as follows: Off-label inhaled VIP therapy in a patient with checkpoint inhibitor-induced pneumonitis. The class given is in vivo, human. As to the method: A patient, who was treated with checkpoint inhibitors, developed CIP and steroid treatment led to insufficient control. Because of missing other approved therapeutic options the patient was treated off-label with inhaled VIP therapy initiated at a dose of 4×70 μg/ml per day dosage (280 μg per day with overnight break).

For data set [3] the following is noted: 50 μg four times daily by inhalation, 28 days; cited from earlier work.
For data set [4] the following is noted: human, in vivo.
A short description of data set [5]: Aerosol characterisation with M-Neb dose+ mesh nebulizer MN-300/8 and COPLEY next generation impactor (NGI). The class given is physicochemical. The following applies: VIP dissolved in 0.9% NaCl. The text has this:
Using the M-Neb® dose+ mesh nebulizer MN-300/8 and the respective mouthpiece, VIP has been tested with the COPLEY next generation impactor (NGI). The mass median aerodynamic diameter (MMD) of VIP dissolved in 0.9% NaCl was 3.3-3.5 μm per emitted particle.

A short description of data set [6]: Blood level of VIP after aerosol administration. It is filed as in vivo. The text has this: This is especially unexpected as the treatment with aerosols is normally regarded to be only efficient if inhaled noxes are the cause of the pulmonary defects. In the context of the present invention, a systemic substance is, however, the cause of drug-induced pneumonitis (such as CIP) and therefore topic administration is not expected to have any great effect.

Where [7] appears, read: CIP patient, inhaled VIP 280 μg per day.

On to `CC[C@H](C)[C@H](NC(=O)[C@H](CO)NC(=O)[C@H](CC(N)=O)NC(=O)[C@H](CC(C)C)NC(=O)[C@H](Cc1ccc(O)cc1)NC(=O)[C@H](CCCCN)NC(=O)[C@H](CCCCN)NC(=O)[C@@H](NC(=O)[C@H](C)NC(=O)[C@H](CCSC)NC(=O)[C@H](CCC(N)=O)NC(=O)[C@H](CCCCN)NC(=O)[C@H](CCCNC(=N)N)NC(=O)[C@H](CC(C)C)NC(=O)[C@H](CCCNC(=N)N)NC(=O)[C@@H](NC(=O)[C@H](Cc1ccc(O)cc1)NC(=O)[C@H](CC(N)=O)NC(=O)[C@H](CC(=O)O)NC(=O)[C@@H](NC(=O)[C@H](Cc1ccccc1)NC(=O)[C@@H](NC(=O)[C@H](C)NC(=O)[C@H](CC(=O)O)NC(=O)[C@H](CO)NC(=O)[C@@H](N)Cc1c[nH]cn1)C(C)C)[C@@H](C)O)[C@@H](C)O)C(C)C)C(=O)N[C@@H](CC(C)C)C(=O)N[C@@H](CC(N)=O)C(N)=O` [VIP, Vasoactive intestinal peptide], for which, in data set [1], the TNF-release result is recorded as “decrease of TNF-release”, the “regulatory T-cells” value was “increase of regulatory T-cells” and the symptoms result is given as “symptomatic relief”. Further, in data set [2] (setting [7]), the “alveolar inflammation as measured by bronchoalveolar lavage” value is “dampened by an increase of regulatory T-cell”, the “patient's general health” value is “ameliorated” and the “radiological alterations (e.g. consolidations)” value is “diminished”. Besides, the lung function entry in data set [2] (CIP patient, inhaled VIP 4×70 μg per day (280 μg per day)) is listed as “normalized within six months of treatment”. The “side effects on the patient's immune system” value in data set [2] (VIP inhalation in CIP) is “does not suffer from severe side effects on the patient's immune system”. The “tolerability / adverse events” value in data set [3] is on record as “well tolerated without serious adverse events”. For the same molecule, the clinical outcome in data set [4] is reported as “clinical amelioration”. In data set [5] (M-Neb dose+ MN-300/8), the “dose delivered at the mouthpiece” value is recorded as 90.2 % of the tested dosages and the “particles with a diameter” value turned out to be 85.7%. The “mass median aerodynamic diameter (MMD) per emitted particle” value in data set [5] (M-Neb dose+ MN-300/8 with mouthpiece) was 3.3-3.5 μm. Besides, the “blood level of VIP” value in data set [6] is listed as “does not lead to an elevated blood level of VIP”.

The record behind these values is patent publication US20220202906A1, “VASOACTIVE INTESTINAL PEPTIDE (VIP) FOR USE IN THE TREATMENT OF DRUG-INDUCED PNEUMONITIS” (ADVITA L[…], priority 2019, published 2022).
